Results reported in PubChem BioAssay (NCI).
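Protocol summary: plate cells (96-well), add compound at 5 concentrations, incubate 48 h, interpolate endpoints linearly. The concentration for full growth arrest is given as TGI.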

Columns and labels:
Assay in all cases: NCI tumour cell line growth inhibition, 48 h
P388 leukemia = tested on: P388 leukemia
DU-145 prostate = tested on: DU-145 prostate
HS 578T breast = tested on: HS 578T breast
M14 melanoma = tested on: M14 melanoma
MDA-MB-231 breast = tested on: MDA-MB-231 breast
MDA-MB-435 = tested on: MDA-MB-435
MDA-N = tested on: MDA-N
PC-3 prostate = tested on: PC-3 prostate
T-47D breast = tested on: T-47D breast
BT-549 breast = tested on: BT-549 breast
RXF-631 renal = tested on: RXF-631 renal

`CC1C(=O)C(C)C(c2cccs2)N(N=O)C1c1cccs1` (centres undefined) was tested, and the TGI (P388 leukemia) was > 100 µM.
For `CCCCC(NC(=O)CC)C(=O)O` (centres undefined), the TGI (P388 leukemia) was > 100 µM.
With `CN1C[C@H]2[C@@H](C1=O)[C@H](c1ccc([N+](=O)[O-])cc1)ON2C` the TGI (DU-145 prostate) was > 100 µM, the TGI (HS 578T breast) was > 100 µM and the TGI (M14 melanoma) was > 100 µM. The TGI (MDA-MB-231 breast) was > 100 µM, the TGI (MDA-MB-435) was > 100 µM and the TGI (MDA-N) was > 100 µM. The TGI (PC-3 prostate) was > 100 µM and the TGI (T-47D breast) was > 100 µM.
For `COc1ccc2c(C)cc(N/N=C/c3sccc3C)nc2c1`, the TGI (BT-549 breast) was 28.9 µM, the TGI (DU-145 prostate) was 23.3 µM and the TGI (HS 578T breast) was 36.7 µM. It also gave a TGI (M14 melanoma) of 24.1 µM, a TGI (MDA-MB-231 breast) of 5.9 µM and a TGI (MDA-MB-435) of 35.4 µM. It also gave a TGI (MDA-N) of 27.3 µM, a TGI (PC-3 prostate) of 31.9 µM and a TGI (T-47D breast) of 33.6 µM.
`COc1cc(C2c3cc4c(cc3OC3(O)COC(=O)C23)OCO4)cc(OC)c1OC` (centres undefined) was tested, and the TGI (M14 melanoma) was > 100 µM and the TGI (RXF-631 renal) was > 100 µM.
With `Nc1ccc2cc(S(=O)(=O)O)cc(O)c2c1N=Nc1ccc(NC(=O)Nc2ccc(N=Nc3c(N)ccc4cc(S(=O)(=O)O)cc(O)c34)c(S(=O)(=O)O)c2)cc1S(=O)(=O)O` the TGI (P388 leukemia) was > 100 µM.
In the case of `CCOc1ccc(C2=C(Cl)c3cc(OC)c(OC)cc3C2Cl)cc1` (centres undefined), the TGI (M14 melanoma) is reported as > 100 µM.
In the case of `O=C1ON(Cc2ccccc2)C(c2ccccc2)N1c1ccccc1` (centres undefined), the TGI (P388 leukemia) is reported as > 100 µM.
